According to patent US20230085307A1, “PYRIDAZINONE COMPOUND AND HERBICIDE” (NISSAN CHEMICAL CORPORATION, priority 2019, published 2023):

Key:
green foxtail [1] = experiment: Test Example 4: herbicidal effect by soil treatment (Table 19, symbol G); format: in vivo, green foxtail (Setaria viridis); details: amount of applied herbicide 320 g/ha
Method in brief: (§1)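 Soil-surface application: an emulsion agent diluted with water to the predetermined dose is sprayed uniformly over seeds lying under roughly 1.5 cm of sterilized diluvial soil. Boxes stay in a greenhouse at 25° C. to 30° C. Three weeks later, each species is graded on previously defined criteria.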

Japanese bulrush = experiment: Test Example 2: herbicidal activity, application during weed generation under submerged conditions (Table 17, symbol B); format: in vivo, Japanese bulrush (Schoenoplectus juncoides); details: application during weed generation under submerged conditions; amount of applied herbicide 320 g/ha
Method in brief: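 3-wk visual-criteria score after one water-surface dose. Emulsion formulation, water-diluted to set rate; applied at 1–2 leaf stage; alluvial soil, 4 cm standing water; seeds co-sown; greenhouse 25–30° C.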

redroot pigweed = experiment: Test Example 5: herbicidal effect by foliage application, plastic box (Table 20, symbol N); format: in vivo, redroot pigweed (Amaranthus retroflexus); details: foliage application, 320 g/ha, evaluated 3 weeks after application
Method in brief: (§2)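 Sow seeds spot-wise in sterilized diluvial soil; cover with ~1.5 cm soil. Grow 14 days in greenhouse, 25° C. to 30° C. Spray foliage with emulsion diluted to predetermined amount. Rate effect after 3 weeks.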

wild oat [2] = experiment: Test Example 5: herbicidal effect by foliage application, plastic box (Table 20, symbol I); format: in vivo, wild oat (Avena fatua); details: foliage application, 320 g/ha, evaluated 3 weeks after application
Method in brief: as §2

barnyard grass = experiment: Test Example 4: herbicidal effect by soil treatment (Table 19, symbol H); format: in vivo, barnyard grass (Echinochloa crus-galli); details: amount of applied herbicide 320 g/ha
Method in brief: as §1

lambsquarters [3] = experiment: Test Example 5: herbicidal effect by foliage application, plastic box (Table 20, symbol O); format: in vivo, lambsquarters (Chenopodium album); details: foliage application, 320 g/ha, evaluated 3 weeks after application
Method in brief: as §2

wild oat [4] = experiment: Test Example 4: herbicidal effect by soil treatment (Table 19, symbol I); format: in vivo, wild oat (Avena fatua); details: amount of applied herbicide 320 g/ha
Method in brief: as §1

windgrass [5] = experiment: Test Example 5: herbicidal effect by foliage application, plastic box (Table 20, symbol L); format: in vivo, windgrass (Apera spica-venti); details: foliage application, 320 g/ha, evaluated 3 weeks after application
Method in brief: as §2

persian speedwell = experiment: Test Example 5: herbicidal effect by foliage application, plastic box (Table 20, symbol R); format: in vivo, Persian speedwell (Veronica persica); details: foliage application, 320 g/ha, evaluated 3 weeks after application
Method in brief: as §2

late watergrass = experiment: Test Example 1: herbicidal activity, application before weed generation under submerged conditions (Table 16, symbol A); format: in vivo, late watergrass (Echinochloa oryzicola); details: amount of applied herbicide 320 g/ha
Method in brief: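 Emulsion formulation, water-diluted to set dose, was put onto the flooded surface (4 cm depth, alluvial soil) the same day weeds were sown and 2.5-leaf rice transplanted. After 3 weeks at 25-30 °C under glass, each species was rated 0 (≤5% kill) to 5 (≥90% kill).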

green foxtail [6] = experiment: Test Example 5: herbicidal effect by foliage application, plastic box (Table 20, symbol G); format: in vivo, green foxtail (Setaria viridis); details: foliage application, 320 g/ha, evaluated 3 weeks after application
Method in brief: as §2

windgrass [7] = experiment: Test Example 4: herbicidal effect by soil treatment (Table 19, symbol L); format: in vivo, windgrass (Apera spica-venti); details: amount of applied herbicide 320 g/ha
Method in brief: as §1

chickweed = experiment: Test Example 4: herbicidal effect by soil treatment (Table 19, symbol P); format: in vivo, common chickweed (Stellaria media); details: amount of applied herbicide 320 g/ha
Method in brief: as §1

Chinese sprangletop = experiment: Test Example 3: herbicidal effect by foliage application, Wagner pot (Table 18, symbol D); format: in vivo, chinese sprangletop (Leptochloa chinensis); details: amount of applied herbicide 320 g/ha
Method in brief: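 Plants were sown in alluvial soil held under 0.1–0.5 cm standing water and grown 14 days in a greenhouse at 25–30 °C. An emulsifiable formulation, water-diluted to the set dose, was then sprayed onto the foliage, and effects were scored three weeks later using previously defined criteria.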

Italian ryegrass = experiment: Test Example 4: herbicidal effect by soil treatment (Table 19, symbol K); format: in vivo, Italian ryegrass (Lolium multiflorum); details: amount of applied herbicide 320 g/ha
Method in brief: as §1

velvetleaf = experiment: Test Example 5: herbicidal effect by foliage application, plastic box (Table 20, symbol M); format: in vivo, velvetleaf (Abutilon theophrasti); details: foliage application, 320 g/ha, evaluated 3 weeks after application
Method in brief: as §2

lambsquarters [8] = experiment: Test Example 4: herbicidal effect by soil treatment (Table 19, symbol O); format: in vivo, lambsquarters (Chenopodium album); details: amount of applied herbicide 320 g/ha
Method in brief: as §1

CSc1ccc(-c2oc3ccc(C)cc3c2-c2c(O)c(C)nn(C)c2=O)cc1 [9-055]
G: green foxtail, herbicidal effect grade (green foxtail [1]): 4 (Herbicidal rate of 70% or more and less than 90%) | herbicidal effect grade, B: Japanese bulrush (Japanese bulrush): 3 (Herbicidal rate of 40% or more and less than 70%) | N (redroot pigweed) herbicidal effect grade (redroot pigweed): 5 (Herbicidal rate of 90% or more (almost completely withered)) | I (wild oat) herbicidal effect grade (wild oat [2]): 0 (Herbicidal rate of 5% or less (almost no effect)) | H: barnyard grass, herbicidal effect grade (barnyard grass): 3 (Herbicidal rate of 40% or more and less than 70%) | O (lambsquarters) herbicidal effect grade (lambsquarters [3]): 5 (Herbicidal rate of 90% or more (almost completely withered)) | I: wild oat, herbicidal effect grade (wild oat [4]): 0 (Herbicidal rate of 5% or less (almost no effect)) | L (windgrass) herbicidal effect grade (windgrass [5]): 4 (Herbicidal rate of 70% or more and less than 90%) | R (persian speedwell) herbicidal effect grade (persian speedwell): 5 (Herbicidal rate of 90% or more (almost completely withered)) | Herbicidal effect, A: late watergrass (late watergrass): 5 (Herbicidal rate of 90% or more (almost completely withered)) | G (green foxtail) herbicidal effect grade (green foxtail [6]): 3 (Herbicidal rate of 40% or more and less than 70%) | L: windgrass, herbicidal effect grade (windgrass [7]): 0 (Herbicidal rate of 5% or less (almost no effect)) | P: chickweed, herbicidal effect grade (chickweed): 5 (Herbicidal rate of 90% or more (almost completely withered)) | Herbicidal effect on D (Chinese sprangletop), foliage application (Chinese sprangletop): 5 (Herbicidal rate of 90% or more (almost completely withered)) | K: Italian ryegrass, herbicidal effect grade (Italian ryegrass): 5 (Herbicidal rate of 90% or more (almost completely withered)) | M (velvetleaf) herbicidal effect grade (velvetleaf): 5 (Herbicidal rate of 90% or more (almost completely withered)) | O: lambsquarters, herbicidal effect grade (lambsquarters [8]): 4 (Herbicidal rate of 70% or more and less than 90%)

CCSc1ccc(-c2oc3ccc(C)cc3c2-c2c(O)c(C)nn(C)c2=O)cc1 [9-057]
G: green foxtail, herbicidal effect grade (green foxtail [1]): 5 (Herbicidal rate of 90% or more (almost completely withered)) | herbicidal effect grade, B: Japanese bulrush (Japanese bulrush): 3 (Herbicidal rate of 40% or more and less than 70%) | N (redroot pigweed) herbicidal effect grade (redroot pigweed): 5 (Herbicidal rate of 90% or more (almost completely withered)) | I (wild oat) herbicidal effect grade (wild oat [2]): 3 (Herbicidal rate of 40% or more and less than 70%) | H: barnyard grass, herbicidal effect grade (barnyard grass): 3 (Herbicidal rate of 40% or more and less than 70%) | O (lambsquarters) herbicidal effect grade (lambsquarters [3]): 5 (Herbicidal rate of 90% or more (almost completely withered)) | I: wild oat, herbicidal effect grade (wild oat [4]): 0 (Herbicidal rate of 5% or less (almost no effect)) | L (windgrass) herbicidal effect grade (windgrass [5]): 3 (Herbicidal rate of 40% or more and less than 70%) | R (persian speedwell) herbicidal effect grade (persian speedwell): 5 (Herbicidal rate of 90% or more (almost completely withered)) | Herbicidal effect, A: late watergrass (late watergrass): 5 (Herbicidal rate of 90% or more (almost completely withered)) | G (green foxtail) herbicidal effect grade (green foxtail [6]): 5 (Herbicidal rate of 90% or more (almost completely withered)) | L: windgrass, herbicidal effect grade (windgrass [7]): 0 (Herbicidal rate of 5% or less (almost no effect)) | P: chickweed, herbicidal effect grade (chickweed): 5 (Herbicidal rate of 90% or more (almost completely withered)) | Herbicidal effect on D (Chinese sprangletop), foliage application (Chinese sprangletop): 3 (Herbicidal rate of 40% or more and less than 70%) | K: Italian ryegrass, herbicidal effect grade (Italian ryegrass): 5 (Herbicidal rate of 90% or more (almost completely withered)) | M (velvetleaf) herbicidal effect grade (velvetleaf): 5 (Herbicidal rate of 90% or more (almost completely withered)) | O: lambsquarters, herbicidal effect grade (lambsquarters [8]): 5 (Herbicidal rate of 90% or more (almost completely withered))

Cc1nn(C)c(=O)c(-c2c(-c3ccc(Cl)cc3)sc3cccc(F)c23)c1O [11-001]
G: green foxtail, herbicidal effect grade (green foxtail [1]): 0 (Herbicidal rate of 5% or less (almost no effect)) | herbicidal effect grade, B: Japanese bulrush (Japanese bulrush): 3 (Herbicidal rate of 40% or more and less than 70%) | N (redroot pigweed) herbicidal effect grade (redroot pigweed): 5 (Herbicidal rate of 90% or more (almost completely withered)) | I (wild oat) herbicidal effect grade (wild oat [2]): 0 (Herbicidal rate of 5% or less (almost no effect)) | H: barnyard grass, herbicidal effect grade (barnyard grass): 0 (Herbicidal rate of 5% or less (almost no effect)) | O (lambsquarters) herbicidal effect grade (lambsquarters [3]): 5 (Herbicidal rate of 90% or more (almost completely withered)) | I: wild oat, herbicidal effect grade (wild oat [4]): 0 (Herbicidal rate of 5% or less (almost no effect)) | L (windgrass) herbicidal effect grade (windgrass [5]): 0 (Herbicidal rate of 5% or less (almost no effect)) | R (persian speedwell) herbicidal effect grade (persian speedwell): 5 (Herbicidal rate of 90% or more (almost completely withered)) | Herbicidal effect, A: late watergrass (late watergrass): 3 (Herbicidal rate of 40% or more and less than 70%) | G (green foxtail) herbicidal effect grade (green foxtail [6]): 0 (Herbicidal rate of 5% or less (almost no effect)) | L: windgrass, herbicidal effect grade (windgrass [7]): 0 (Herbicidal rate of 5% or less (almost no effect)) | P: chickweed, herbicidal effect grade (chickweed): 4 (Herbicidal rate of 70% or more and less than 90%) | Herbicidal effect on D (Chinese sprangletop), foliage application (Chinese sprangletop): 3 (Herbicidal rate of 40% or more and less than 70%) | K: Italian ryegrass, herbicidal effect grade (Italian ryegrass): 0 (Herbicidal rate of 5% or less (almost no effect)) | M (velvetleaf) herbicidal effect grade (velvetleaf): 5 (Herbicidal rate of 90% or more (almost completely withered)) | O: lambsquarters, herbicidal effect grade (lambsquarters [8]): 4 (Herbicidal rate of 70% or more and less than 90%)
